Read-outs that look alike come from different tables or passages of the source.
Key:
[1] = biological target: T1, hERG1a (homomeric hERG channel, IhERG) (Homo sapiens, UniProt Q12809)
T1 construct: gene KCNH2

[2] = biological target: T2, hERG1a/1b (heteromeric hERG channel, IhERG) (Homo sapiens, UniProt Q12809)
T2 construct: gene KCNH2

[3] = biological target: T1, hERG1a (homomeric hERG channel, IhERG); experiment: whole-cell patch clamp, tail current
[4] = biological target: T2, hERG1a/1b (heteromeric hERG channel, IhERG); experiment: whole-cell patch clamp, tail current

T2 sequence (Q12809 whole entry): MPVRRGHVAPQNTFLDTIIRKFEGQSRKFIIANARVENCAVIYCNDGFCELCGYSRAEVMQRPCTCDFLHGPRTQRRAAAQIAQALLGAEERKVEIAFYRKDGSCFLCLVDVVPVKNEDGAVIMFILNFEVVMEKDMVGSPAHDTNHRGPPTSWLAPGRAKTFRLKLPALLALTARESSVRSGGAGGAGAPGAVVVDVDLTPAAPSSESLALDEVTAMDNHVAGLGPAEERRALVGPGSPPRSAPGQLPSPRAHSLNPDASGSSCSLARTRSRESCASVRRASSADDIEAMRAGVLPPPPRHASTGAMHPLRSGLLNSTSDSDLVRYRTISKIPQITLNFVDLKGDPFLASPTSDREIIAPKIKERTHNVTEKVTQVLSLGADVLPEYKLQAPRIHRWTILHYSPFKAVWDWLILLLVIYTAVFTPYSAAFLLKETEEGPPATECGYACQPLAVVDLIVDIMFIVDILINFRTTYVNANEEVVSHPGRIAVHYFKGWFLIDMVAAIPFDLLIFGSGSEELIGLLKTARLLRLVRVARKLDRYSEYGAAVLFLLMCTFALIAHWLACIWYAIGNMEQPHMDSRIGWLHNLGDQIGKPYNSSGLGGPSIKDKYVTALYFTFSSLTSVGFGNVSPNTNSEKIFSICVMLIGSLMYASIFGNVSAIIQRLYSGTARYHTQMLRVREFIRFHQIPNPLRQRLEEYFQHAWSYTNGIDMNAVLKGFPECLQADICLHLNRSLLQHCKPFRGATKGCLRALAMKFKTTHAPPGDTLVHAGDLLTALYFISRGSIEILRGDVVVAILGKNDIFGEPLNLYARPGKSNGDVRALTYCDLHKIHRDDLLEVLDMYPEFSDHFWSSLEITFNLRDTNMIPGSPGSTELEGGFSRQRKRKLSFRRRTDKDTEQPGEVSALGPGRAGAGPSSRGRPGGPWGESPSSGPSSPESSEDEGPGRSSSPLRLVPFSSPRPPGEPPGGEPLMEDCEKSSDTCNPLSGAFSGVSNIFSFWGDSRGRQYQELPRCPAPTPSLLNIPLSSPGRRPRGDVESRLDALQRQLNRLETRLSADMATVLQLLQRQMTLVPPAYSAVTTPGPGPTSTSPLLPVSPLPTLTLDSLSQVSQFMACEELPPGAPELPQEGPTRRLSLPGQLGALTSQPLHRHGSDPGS
T2 sequence (Q12809 377-1159 limits assumed): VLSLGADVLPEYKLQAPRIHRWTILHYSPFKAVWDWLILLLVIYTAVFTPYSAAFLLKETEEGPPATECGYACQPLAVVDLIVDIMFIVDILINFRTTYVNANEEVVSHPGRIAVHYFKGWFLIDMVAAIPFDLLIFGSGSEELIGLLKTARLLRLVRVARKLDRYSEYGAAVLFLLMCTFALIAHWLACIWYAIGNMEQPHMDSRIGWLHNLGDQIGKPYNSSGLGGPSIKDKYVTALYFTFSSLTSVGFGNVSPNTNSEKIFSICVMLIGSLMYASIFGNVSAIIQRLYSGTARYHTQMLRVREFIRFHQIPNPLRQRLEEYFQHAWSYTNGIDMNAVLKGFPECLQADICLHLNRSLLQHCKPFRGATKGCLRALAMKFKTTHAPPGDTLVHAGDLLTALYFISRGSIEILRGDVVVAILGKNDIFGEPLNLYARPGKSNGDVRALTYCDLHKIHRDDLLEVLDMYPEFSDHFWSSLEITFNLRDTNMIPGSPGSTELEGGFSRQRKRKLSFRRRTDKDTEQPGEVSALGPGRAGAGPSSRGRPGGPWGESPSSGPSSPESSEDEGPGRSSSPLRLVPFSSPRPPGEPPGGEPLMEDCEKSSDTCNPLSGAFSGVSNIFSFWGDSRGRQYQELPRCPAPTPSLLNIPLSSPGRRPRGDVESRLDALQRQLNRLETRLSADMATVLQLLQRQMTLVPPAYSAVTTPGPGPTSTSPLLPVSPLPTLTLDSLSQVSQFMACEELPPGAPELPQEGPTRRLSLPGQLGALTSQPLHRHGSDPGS
T1 sequence (Q12809 whole entry): as the sequence (Q12809 whole entry) above

Row | SMILES | IC50 [1] | IC50 [2] | IC50 [3] | IC50 [4]
1 | CO[C@]12CC[C@@]3(C[C@@H]1[C@](C)(O)C(C)(C)C)[C@H]1Cc4ccc(O)c5c4[C@@]3(CCN1CC1CC1)[C@H]2O5 [Buprenorphine] | 8.7 ± 0.4 µM | 6.9 ± 0.9 µM | – | –
2 | O=C1CC[C@@]2(O)[C@H]3Cc4ccc(O)c5c4[C@@]2(CCN3CC2CC2)[C@H]1O5 [Naltrexone] | – | – | 31.1 ± 5.4 µM | 32.3 ± 8.6 µM

Reference: paper PMC7647070, “Mechanisms of QT prolongation by buprenorphine cannot be explained by direct hERG channel block” (PLoS ONE, 2020)
